A short description of data set [1]: Half life in iv dosed rat. It counts as ADME, organism-based. The following applies: in vivo.
A short description of data set [2]: Unbound clearance in iv dosed rat. It counts as ADME, organism-based. The following applies: in vivo.
Data set [3] in a line: Permeability of the compound by PAMPA. It counts as ADME. Particulars: read-out: permeability.
Data set [4] in a line: Volume of distribution at steady state in iv dosed rat. The following applies: in vivo, read-out: Vdss. It counts as ADME, organism-based.
Data set [5] in a line: Lipophilicity, log D of the compound at pH 7.4 by chromatographic method. It counts as physicochemical. The following applies: buffer.
Data set [6] in a line: Solubility of the compound by CLND method. It counts as physicochemical.
A short description of data set [7]: Clearance in iv dosed rat. The following applies: in vivo. It counts as ADME, organism-based.
Data set [8] is described as follows: Stability in minipig microsomes assessed as clearance. The following applies: pig. It counts as ADME, Sus scrofa, Microsome.
A short description of data set [9]: Dissociation constant, pKa of compound. It counts as physicochemical.
Data set [10] can be described thus: Stability in minipig Hepatocyte assessed as clearance. It counts as ADME, cell-based, Sus scrofa. The following applies: pig, hepatocytes; read-out: CLH.

Some results are limits rather than exact numbers.

Compound `COc1ncc(N2CCOc3ccc(CN(C)C)cc32)cc1NS(C)(=O)=O` showed a half-life in data set [1] of 0.6 h. In data set [2], this compound had a CL free of 587 mL/min/kg. Also, in data set [3], the Papp came to 14 ×10⁻⁶ cm/s. Further, the Vd in [4] amounted to 8.5 L/kg. The same compound had a chromatographic logD in [5] of 1.6. Further, in data set [6], the solubility (kinetic) was no less than 406 µM. Besides, the clearance in data set [7] was 233 mL/min/kg. For the same compound, the CLint scaled in [8] was 1.63 mL/min/kg; in data set [10], less than 0.89 mL/min/kg. The compound also returned a pKa in [9] of 9.4.
With `COc1ncc2cc1NS(=O)(=O)CCN(C)Cc1ccc3c(c1)N2CCO3`, the half-life in [1] is 1.5 h. This compound returned a CL free in [2] of 192 mL/min/kg. For the same compound, the Papp in [3] came to 53 ×10⁻⁶ cm/s. The Vd in [4] was 1.8 L/kg. In data set [5], this compound had a chromatographic logD of 4.3. In addition, in [6], the kinetic solubility is no less than 331 µM. Also, the clearance in data set [7] stood at 12.3 mL/min/kg. Moreover, the CLint scaled in data set [8] was 0.92 mL/min/kg; in [10], less than 0.89 mL/min/kg. This compound also came in with a pKa in data set [9] of 5.7.
